Laboratory results published in patent EP4772500A1, “NOVEL ISOXAZOLE COMPOUND AS TM4SF5-SPECIFIC INHIBITOR AND USE THEREOF” (Seoul National University R&DB Foundation, priority 2023, dated 2025).

How the values were obtained:
[1] = tested on: TM4SF5-expressing cells (SNU449T7); experiment: Western blotting for signaling factors whose phosphorylation increases in a TM4SF5-expression dependent manner; type: cell-based, human; details: for phosphorylation of FAK, c-Src, STAT3, p27, S6K1, AKT, and STAT5: 24 hours (FIG. 9a-b); for phosphorylation of FAK, c-Src, STAT3, p27, S6K1, and AKT / phosphorylation of FAK, STAT3, c-Src, S6K1, Akt, and p27: given concentrations
Experimental: Cell extracts were obtained from cells grown to a density of 70-80% without any treatment, or from cells treated with vehicle DMSO or drugs at the given concentrations for 24 hours. For the extract of hepatocytes or liver cancer cells, a lysis buffer (150 mM NaCl, 1% NP-40, 50 mM Tris-HCl, 0.25% sodium deoxycholate, pH 7.4) including a protease inhibitor cocktail (GenDEPOT) was used. In addition, after washing animal liver tissue twice with PBS, SDS, Na3VO4, and protease inhibitor cocktails (GenDEPOT) were added to a lysis buffer [50 mM Tris-HCl, pH 7.4, 1% NP40, 0.25% sodium deoxycholate, 150 mM NaCl, 1 mM EDTA (based on 500 ml)], followed by treatment at 4°C for 15 minutes. After centrifugation at 13,000 rpm at 4°C for 30 minutes, only the supernatant was transferred to a new microcentrifuge tube. After quantification using BCA reagent (Thermo Scientific), a 4 × sample buffer [100% glycerol 4 ml, Tris-HCl, pH 6.8, 2.4 ml, SDS 0.8 g, Bromophenol blue 4 mg, betamercaptoethanol 0.4 ml, H2O 3.1 ml (based on 10 ml)] was added, followed by boiling at 100°C for 5 minutes. After performing SDS-PAGE electrophoresis with the above samples and transferring them to Nitrocellulose Membranes Protran™ nitrocellulose membranes (Whatman), pre-treatment was performed with 5% skim milk for 1 hour. After pre-treatment, primary antibodies of p-FAK(Y861) (SC-16663), p-FAK(Y577) (SC-16665), c-Src (SC-8056), STAT3 (SC-8019), p-AKT 1/2/3(S473) (SC-7985), STATS (SC-835), Laminin γ2 (SC-393225), COL1A1 (SC-28657), CCL5(RANTES) (SC-514019) CCL20(MIP-3α) (SC-517441), SIRT1 (SC-74465), ChREBP (SC-515922), SREBP1 (SC-366513), DGAT1 (SC-271934), DGAT2 (SC-293211), MICA/B (SC-137242), SLAMF7 (SC-390840), α-tublin (SC-5286), β-actin (SC-47778), FUCA (SC-365496) (the above from Santa Cruz Biotech, USA), p-FAK(Y397) (cat # 611723), FAK (cat # 610088), p27 (cat # 610242) (the above from BD Transduction, USA), p-FAK(Y925) (#3284) p-c-Src(Y416) (#2101), p-STAT3(Y705) (#9145), p70S6K1 (#9202), p-p70S6K1(T389) (#9205), p-STAT5(Y694) (#9314), ACC (#3676), FASN (#3189), CPT1A (#12252), p-ACC(S79) (#11818), HA (#3724), PD-L1 (#13684), PD-1 (#86163), p-ERK1/2(T202/Y204) (#9101s), ERK1/2 (#9102s) (the above from Cell Signaling Tech., USA), pS10p27(S10) (ab62364), human SLAMF6 (ab224201), TIGIT (ab233404), CD34 (ab81289) (the above from Abcam, UK), mouse SLAMF6 (PA5-87823), NKG2D (PA5-102038) (the above from Thermofisher, USA), α-SMA (Sigma Aldrich, A5228), CCL2 (Invitrogen, MA5-17040), and CD155(PVR) (Biolegend, 337601), HA (Biolegend, USA), Strep-HRP(horse-radish peroxidase), StrepMAB-HRP (IBA, USA), AFP (FineTest, FNab00203) were reacted at 4°C for 15 hours. The next day, secondary antibodies were reacted, and development was performed on X-ray film using ECL (Pierce, USA). Anti-TM4SF5C-ter (epitope region of RKKQDTPH^197) and anti-TM4SF5EC2 (CLMNGEWGYHFEDTAGA^130) were custom-made at a professional antibody production company (Pro-Sci, Poway, CA, USA).
Cell extracts were obtained before and after treating TM4SF5-non-expressing cells (SNU449Cp) and TM4SF5-expressing cells (SNU449T7) with ST-1-024 or ST-1-025 drugs at the given concentrations for 24 hours, and Western blotting was performed for signaling factors whose phosphorylation and activity increase in a TM4SF5-expression dependent manner.
(a) Cell extracts were obtained after treating TM4SF5-non-expressing cells (SNU449Cp) and TM4SF5-expressing cells (SNU449T7) with vehicle (DMSO), TSAHC, or isoxazole compounds ST-2-001, ST-2-002, ST-2-003, ST-2-004, ST-2-005, ST-2-006, ST-2-007, ST-2-008, ST-2-009, ST-2-010, or ST-2-011 at a dose of 5 µM (for 24 hours). Using these, Western blotting was performed for signaling factors whose phosphorylation and activity increase in a TM4SF5-expression dependent manner. […]

[2] = tested on: TM4SF5-expressing cells (SNU449T7); experiment: 3D sphere growth/proliferation; type: cell-based, human; details: for degree of cell proliferation (spheres): 2.5 µM on the 0 and 3rd days, observed 6th day (FIG. 5b); for cell proliferation inhibitory effect: 0.5 or 2.5 µM (FIG. 10a, b), comparison among drugs; for survival/proliferation of the spheres: given concentrations on the 0, 3, 6, and 9th days, observed 10th day (FIG. 12b-c)
Experimental: TM4SF5-non-expressing cells (SNU449Cp) and TM4SF5-expressing cells (SNU449T7) of the same number (200 cells/well or 1000 cells/well) were added per well into Costar Ultra-Low Attachment Multiple Well Plates (CORNING), and were then treated with vehicle (DMSO) or drugs at various concentrations and cultured in a cell incubator under conditions of 37°C and 5% CO2. After repeatedly treating with the same concentrations of drugs every few days at regular intervals as indicated from the date of cell culture, the proliferation of the cells (spheres) was observed and photographed using an optical microscope on the last day of observation.
The drugs treated were the positive control drug TSAHC or the ST-1-025 isoxazole compound at the given concentrations. From the time of starting culture (0 day), (FIG. 3a) in the case of 2D culture, the number of cells was measured after treating with the drug every 24 hours, or (FIG. 3b) in a 3D environment, the proliferation of cells (spheres) was observed and photographed with an optical microscope on the 5th and 7th days after a single drug treatment at the start of culture. […]

[3] = SNU449T7, given concentrations, 24 hours (FIG. 2)
[4] = single treatment at 5 µM at start of culture, observed 5th and 7th days (FIG. 3b)
[5] = 0.5 or 2.5 µM, observed 6th or 10th day (FIG. 10a, b)
[6] = 0.1 or 1.0 µM, observed 10th day (FIG. 10c)

**Q.** With `COc1ccc(-c2cc(-c3ccc(N)cc3)no2)cc1` [ST-1-025, 4-(5-(4-methoxyphenyl)isoxazole-3-yl)aniline] as the compound, how does the “phosphorylation of FAK, c-Src, STAT3, and p27” value [1, 3] read?
**A.** The value was “decreased”.

**Q.** And the “degree of sphere proliferation” value ([2]; repeated treatment at given concentrations on the 0, 5, and 6th days, observed 7th day (FIG. 3c))?
**A.** Its value is “inhibited by ST-1-025 in a concentration-dependent manner, albeit slightly”.

**Q.** And the “degree of sphere proliferation” value [2, 4]?
**A.** Its value is “inhibited, albeit slightly”.

**Q.** For `COc1ccc(-c2cc(-c3ccc(NC(C)=O)cc3)no2)cc1` [ST-2-001, N-(4-(5-(4-methoxyphenyl)isoxazole-3-yl)phenyl)acetamide], which “phosphorylation of FAK, c-Src, STAT3, and p27” value ([1]; 5 µM, 24 hours (FIG. 5a)) is on record?
**A.** Its value is “decreased”.

**Q.** And the “phosphorylation of FAK, c-Src, STAT3, p27, S6K1, AKT, and STAT5” value (shortened to “phosphorylation of FAK, c-Src … and STAT5”) ([1]; 5 µM)?
**A.** Its value is “decreased”.

**Q.** And the “phosphorylation of FAK, c-Src, STAT3, p27, S6K1, and AKT” value (shortened to “phosphorylation of FAK, c-Src … and AKT”) ([1]; 24 hours (FIG. 5c))?
**A.** Its value is “decreased in a drug concentration-dependent manner”.

**Q.** And the “phosphorylation of FAK, c-Src … and AKT” value ([1]; 24 hours (FIG. 9c))?
**A.** The value was “decreased in a concentration-dependent manner”.

**Q.** What about the “phosphorylation of FAK, STAT3, c-Src, S6K1, Akt, and p27” value (shortened to “phosphorylation of FAK, STAT3, c-Src”) ([1]; 24 hours (FIG. 12a)) of the same compound?
**A.** The value was “inhibited in many cases including STAT3, S6K1, and FAK”.

**Q.** And the “phosphorylation of FAK, STAT3, c-Src” value ([1]; 24 hours (FIG. 12d))?
**A.** Its value is “inhibited”.

**Q.** What about the “degree of cell proliferation (spheres)” value [2] of the same compound?
**A.** Its value is “inhibited”.

**Q.** And the “cell proliferation inhibitory effect” value [2]?
**A.** The value was “strong”.

**Q.** What about the “degree of three-dimensional cell proliferation” value [2, 5] of the same compound?
**A.** The value was “inhibited”.

**Q.** And the “survival/proliferation of the spheres” value [2]?
**A.** Its value is “inhibited”.

**Q.** `CC(=O)Nc1ccc(-c2cc(-c3ccc(F)cc3)on2)cc1` [ST-3-006, N-(4-(5-(4-fluorophenyl)isoxazole-3-yl)phenyl)acetamide] was tested. Which “phosphorylation of FAK, c-Src … and STAT5” value ([1]; 5 µM) did it give?
**A.** Its value is “decreased”.

**Q.** What about the “phosphorylation of FAK, c-Src … and AKT” value ([1]; 24 hours (FIG. 9c)) of the same compound?
**A.** The value was “decreased in a concentration-dependent manner”.

**Q.** What about the “degree of three-dimensional cell proliferation” value [2, 6] of the same compound?
**A.** The value was “decreased”.

**Q.** And the “cell proliferation inhibitory effect” value [2]?
**A.** The value was “strong”.

**Q.** And the “degree of three-dimensional cell proliferation” value [2, 5]?
**A.** Its value is “inhibited”.

**Q.** How did the “phosphorylation of FAK, c-Src … and STAT5” value ([1]; 5 µM) turn out when `COc1ccc(-c2cc(-c3cccc(NC(C)=O)c3)no2)cc1` [ST-3-011, N-(3-(5-(4-methoxyphenyl)isoxazole-3-yl)phenyl)acetamide] was run?
**A.** Its value is “decreased”.

**Q.** What about the “phosphorylation of FAK, c-Src … and AKT” value ([1]; 24 hours (FIG. 9c)) of the same compound?
**A.** Its value is “decreased in a concentration-dependent manner”.

**Q.** And the “degree of three-dimensional cell proliferation” value [2, 6]?
**A.** Its value is “decreased”.

**Q.** What about the “degree of three-dimensional cell proliferation” value [2, 5] of the same compound?
**A.** The value was “inhibited”.

**Q.** Which results are given for `CC(=O)Nc1ccc(-c2cc(-c3ccc(O)cc3)no2)cc1` [ST-5-001, N-(4-(3-(4-hydroxyphenyl)isoxazole-5-yl)phenyl)acetamide]?
**A.** phosphorylation of FAK, STAT3, c-Src, S6K1, Akt, and p27 ([1]; 24 hours (FIG. 12d)): inhibited; survival/proliferation of the spheres [2]: inhibited

**Q.** How did the phosphorylation inhibitory efficacy ([1]; drug with improved purity (FIG. 12d)) turn out when `Cc1ccc(C(=O)Nc2ccc(-c3cc(-c4ccc(O)cc4)no3)cc2)cc1` [ST-5-002, N-(4-(3-(4-hydroxyphenyl)isoxazole-5-yl)phenyl)-4-methylbenzamide] was run?
**A.** Its phosphorylation inhibitory efficacy is “maintained and further improved”.

**Q.** What about the “phosphorylation of FAK, STAT3, c-Src” value ([1]; 24 hours (FIG. 12d)) of the same compound?
**A.** The value was “inhibited”.

**Q.** And the “survival/proliferation of the spheres” value [2]?
**A.** The value was “inhibited”.

**Q.** Which “phosphorylation of FAK, c-Src, STAT3, and p27” value ([1]; 5 µM, 24 hours (FIG. 5a)) does the source give for `Cc1ccc(S(=O)(=O)Nc2ccc(C(=O)/C=C/c3ccc(O)cc3)cc2)cc1` [TSAHC, 4'-(p-toluenesulfonylamino)-4-hydroxychalcone, reference compound] here?
**A.** The value was “decreased”.

**Q.** What about the “phosphorylation of FAK, c-Src, STAT3, and p27” value [1, 3] of the same compound?
**A.** The value was “decreased”.

**Q.** What about the “phosphorylation of FAK, c-Src … and AKT” value ([1]; 24 hours (FIG. 5c)) of the same compound?
**A.** Its value is “decreased in a drug concentration-dependent manner”.

**Q.** What about the “degree of cell proliferation (spheres)” value [2] of the same compound?
**A.** The value was “inhibited”.

**Q.** And the “degree of sphere proliferation” value [2, 4]?
**A.** The value was “inhibited, albeit slightly”.
